The source of these data is ChEMBL document CHEMBL5465560, “Selectivity Literature for EUbOPEN Chemogenomic Library” (2024).

Molecules are shown by their SMILES.

For experiment [1], the target named is Tyrosine-protein kinase Fgr (Homo sapiens) (UniProt P09769). In words: Selectivity interaction (Kinase panel (Z-LYTE Assay)) EUB0001632a FGR. Particulars: at 10 µM.
The target of experiment [2] is T1, Serine/threonine-protein kinase ULK2 (Homo sapiens) (UniProt Q8IYT8).
T1 sequence (whole entry): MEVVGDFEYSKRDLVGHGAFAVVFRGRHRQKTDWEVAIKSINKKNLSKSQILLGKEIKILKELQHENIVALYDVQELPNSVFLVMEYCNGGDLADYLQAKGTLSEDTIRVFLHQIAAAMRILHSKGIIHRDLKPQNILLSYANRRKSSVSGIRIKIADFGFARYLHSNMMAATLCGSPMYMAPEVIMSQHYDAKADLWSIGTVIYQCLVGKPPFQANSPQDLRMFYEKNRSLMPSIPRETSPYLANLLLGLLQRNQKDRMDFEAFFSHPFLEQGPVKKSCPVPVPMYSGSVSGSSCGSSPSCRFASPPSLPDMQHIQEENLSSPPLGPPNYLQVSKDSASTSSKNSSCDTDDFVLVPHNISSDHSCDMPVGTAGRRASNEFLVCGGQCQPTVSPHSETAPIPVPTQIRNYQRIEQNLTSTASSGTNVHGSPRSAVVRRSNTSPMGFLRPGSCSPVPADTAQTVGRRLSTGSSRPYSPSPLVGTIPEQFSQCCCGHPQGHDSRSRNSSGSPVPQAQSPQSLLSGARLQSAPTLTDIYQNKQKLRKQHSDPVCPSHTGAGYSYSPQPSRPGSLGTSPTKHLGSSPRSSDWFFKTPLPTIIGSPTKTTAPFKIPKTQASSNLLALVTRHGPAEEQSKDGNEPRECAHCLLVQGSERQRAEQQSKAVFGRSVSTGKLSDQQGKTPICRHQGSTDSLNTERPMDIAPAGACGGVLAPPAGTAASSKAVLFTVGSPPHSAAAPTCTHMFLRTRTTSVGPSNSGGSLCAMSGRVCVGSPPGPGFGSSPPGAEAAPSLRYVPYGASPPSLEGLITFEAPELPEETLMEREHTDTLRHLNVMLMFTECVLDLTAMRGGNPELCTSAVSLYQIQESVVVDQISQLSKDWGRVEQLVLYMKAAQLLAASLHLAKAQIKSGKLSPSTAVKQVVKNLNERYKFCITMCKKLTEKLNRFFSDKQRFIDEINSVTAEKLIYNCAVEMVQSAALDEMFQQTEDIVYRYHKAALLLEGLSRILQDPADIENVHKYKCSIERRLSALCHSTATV
In words: Selectivity interaction (LanthaScreen Eu Kinase Binding Assay) EUB0001632a ULK2. The settings on record: at 10 µM. (Time-resolved FRET reads energy transfer from a long-lived donor to a nearby acceptor.)

Experiment [3] deals with Tyrosine-protein kinase JAK1 (Homo sapiens, UniProt P23458). The experiment can be described thus: Selectivity interaction (ActivX KiNativ screen (ex vivo kinase selectivity in human PBMCs)) EUB0001619a JAK1. The class given is cell-based. The settings on record: PBMC, at 1 µM.
Tyrosine-protein kinase JAK1, sequence (P23458 whole entry): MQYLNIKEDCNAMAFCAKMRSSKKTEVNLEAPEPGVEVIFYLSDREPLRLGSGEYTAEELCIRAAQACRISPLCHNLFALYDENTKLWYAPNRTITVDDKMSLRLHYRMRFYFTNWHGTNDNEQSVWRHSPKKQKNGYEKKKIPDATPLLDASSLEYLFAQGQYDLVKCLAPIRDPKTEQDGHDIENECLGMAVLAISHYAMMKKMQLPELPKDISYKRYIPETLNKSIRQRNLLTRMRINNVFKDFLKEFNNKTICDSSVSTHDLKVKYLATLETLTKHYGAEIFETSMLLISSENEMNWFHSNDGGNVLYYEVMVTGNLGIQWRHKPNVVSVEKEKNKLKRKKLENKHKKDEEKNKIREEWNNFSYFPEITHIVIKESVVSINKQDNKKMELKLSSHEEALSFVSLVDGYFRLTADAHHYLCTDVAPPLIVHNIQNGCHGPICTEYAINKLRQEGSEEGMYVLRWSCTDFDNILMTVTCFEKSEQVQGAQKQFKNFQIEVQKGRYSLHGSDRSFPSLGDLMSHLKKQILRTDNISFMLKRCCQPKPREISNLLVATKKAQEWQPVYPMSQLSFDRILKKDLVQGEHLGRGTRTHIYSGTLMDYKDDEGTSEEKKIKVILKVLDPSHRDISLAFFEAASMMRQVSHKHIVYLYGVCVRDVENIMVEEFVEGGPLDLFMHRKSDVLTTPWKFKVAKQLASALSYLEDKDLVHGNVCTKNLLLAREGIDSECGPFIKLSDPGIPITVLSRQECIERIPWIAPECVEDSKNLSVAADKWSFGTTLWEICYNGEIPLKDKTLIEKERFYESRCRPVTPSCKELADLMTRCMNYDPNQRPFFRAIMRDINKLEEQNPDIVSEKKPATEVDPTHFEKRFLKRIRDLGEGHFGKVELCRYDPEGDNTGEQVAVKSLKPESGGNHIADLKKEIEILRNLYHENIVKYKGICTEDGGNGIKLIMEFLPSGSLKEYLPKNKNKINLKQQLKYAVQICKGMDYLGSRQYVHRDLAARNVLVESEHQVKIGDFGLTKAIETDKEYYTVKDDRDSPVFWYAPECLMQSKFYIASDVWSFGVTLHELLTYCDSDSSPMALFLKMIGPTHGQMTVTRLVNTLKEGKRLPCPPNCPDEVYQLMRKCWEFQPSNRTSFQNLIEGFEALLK
Experiment [4] has as its target T2, Serine/threonine-protein kinase D3 (Homo sapiens) (UniProt O94806).
T2 sequence (whole entry): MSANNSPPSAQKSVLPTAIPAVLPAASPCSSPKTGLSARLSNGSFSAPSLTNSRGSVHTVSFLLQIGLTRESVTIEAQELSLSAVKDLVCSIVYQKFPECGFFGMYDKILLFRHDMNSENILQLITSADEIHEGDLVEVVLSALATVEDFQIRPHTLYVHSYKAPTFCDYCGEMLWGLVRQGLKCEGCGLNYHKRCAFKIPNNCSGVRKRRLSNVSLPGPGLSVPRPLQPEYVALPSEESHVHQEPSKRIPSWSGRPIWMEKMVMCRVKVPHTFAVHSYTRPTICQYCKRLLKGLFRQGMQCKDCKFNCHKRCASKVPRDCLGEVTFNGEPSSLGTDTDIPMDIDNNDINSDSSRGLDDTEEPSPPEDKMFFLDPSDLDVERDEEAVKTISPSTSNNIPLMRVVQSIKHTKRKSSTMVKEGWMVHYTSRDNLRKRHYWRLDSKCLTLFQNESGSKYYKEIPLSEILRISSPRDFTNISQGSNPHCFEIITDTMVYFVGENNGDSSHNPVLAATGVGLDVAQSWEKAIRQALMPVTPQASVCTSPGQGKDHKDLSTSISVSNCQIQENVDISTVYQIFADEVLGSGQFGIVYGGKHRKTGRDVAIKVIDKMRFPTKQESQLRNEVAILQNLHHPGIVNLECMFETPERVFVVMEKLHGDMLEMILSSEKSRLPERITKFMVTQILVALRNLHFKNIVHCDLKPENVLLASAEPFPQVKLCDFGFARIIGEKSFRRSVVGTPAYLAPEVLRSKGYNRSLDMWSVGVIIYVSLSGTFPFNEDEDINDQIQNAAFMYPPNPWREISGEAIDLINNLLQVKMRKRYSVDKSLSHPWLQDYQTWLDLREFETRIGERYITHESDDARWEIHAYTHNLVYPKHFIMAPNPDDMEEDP
In words: Selectivity interaction (ActivX KiNativ screen (kinase selectivity in THP-1 cell lysates)) EUB0000639a PRKD3. Particulars: lysate. It is filed as subcellular.

A further experiment concerns the target SRSF protein kinase 1 (Homo sapiens, UniProt Q96SB4). In words: Selectivity interaction (ProQinase) EUB0000171b SRPK1.
The target in a further experiment is CREB-binding protein (Homo sapiens, UniProt Q92793). The experiment can be described thus: Selectivity interaction (Human bromodomain panel (DSF assay)) EUB0000233b CREBBP. Background: In DSF a fluorescence change marks the thermal transition of the protein.
Experiment [5] concerns the target T3, 3-phosphoinositide-dependent protein kinase 1 (Homo sapiens) (UniProt O15530).
T3 sequence (whole entry): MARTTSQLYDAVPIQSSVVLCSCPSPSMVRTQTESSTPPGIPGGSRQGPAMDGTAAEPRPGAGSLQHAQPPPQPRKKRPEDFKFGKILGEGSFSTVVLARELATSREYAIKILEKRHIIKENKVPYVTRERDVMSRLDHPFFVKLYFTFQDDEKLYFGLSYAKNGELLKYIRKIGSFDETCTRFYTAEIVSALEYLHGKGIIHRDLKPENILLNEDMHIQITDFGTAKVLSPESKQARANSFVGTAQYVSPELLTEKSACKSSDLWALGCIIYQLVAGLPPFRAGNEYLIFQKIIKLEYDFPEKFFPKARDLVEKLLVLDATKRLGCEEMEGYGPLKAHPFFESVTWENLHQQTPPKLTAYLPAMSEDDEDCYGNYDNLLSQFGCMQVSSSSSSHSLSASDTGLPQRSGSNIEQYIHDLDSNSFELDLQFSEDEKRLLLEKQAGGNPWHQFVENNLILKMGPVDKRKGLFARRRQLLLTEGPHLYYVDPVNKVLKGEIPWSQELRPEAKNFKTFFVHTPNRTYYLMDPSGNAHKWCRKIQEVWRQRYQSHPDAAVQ
In words: Selectivity interaction (KinomeScan (DiscoverX)) EUB0000618a PDPK1. Particulars: at 10 µM.

Experiment [6] addresses Insulin receptor-related protein (Homo sapiens) (UniProt P14616). The experiment can be described thus: Selectivity interaction (KinomeScan (DiscoverX)) EUB0000618a INSRR. The settings on record: at 10 µM.

SRSF protein kinase 1, sequence (Q96SB4 whole entry): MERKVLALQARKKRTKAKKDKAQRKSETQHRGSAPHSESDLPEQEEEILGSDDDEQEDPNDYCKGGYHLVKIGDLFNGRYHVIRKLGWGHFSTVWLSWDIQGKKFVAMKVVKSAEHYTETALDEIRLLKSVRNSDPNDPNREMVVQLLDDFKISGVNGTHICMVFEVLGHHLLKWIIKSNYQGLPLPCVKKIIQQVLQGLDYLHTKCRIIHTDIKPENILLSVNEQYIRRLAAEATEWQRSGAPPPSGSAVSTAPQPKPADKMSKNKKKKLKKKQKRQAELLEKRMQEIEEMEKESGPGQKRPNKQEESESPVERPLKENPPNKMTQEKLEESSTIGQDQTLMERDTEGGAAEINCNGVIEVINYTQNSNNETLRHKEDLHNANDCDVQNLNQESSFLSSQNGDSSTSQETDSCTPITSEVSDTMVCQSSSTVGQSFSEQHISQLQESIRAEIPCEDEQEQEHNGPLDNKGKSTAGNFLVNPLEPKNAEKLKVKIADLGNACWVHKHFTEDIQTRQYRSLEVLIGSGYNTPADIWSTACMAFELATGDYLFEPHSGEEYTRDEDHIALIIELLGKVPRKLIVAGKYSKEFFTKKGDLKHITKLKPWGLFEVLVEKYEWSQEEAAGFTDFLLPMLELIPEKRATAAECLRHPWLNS
Insulin receptor-related protein (Homo sapiens), sequence (P14616 27-742 limits assumed): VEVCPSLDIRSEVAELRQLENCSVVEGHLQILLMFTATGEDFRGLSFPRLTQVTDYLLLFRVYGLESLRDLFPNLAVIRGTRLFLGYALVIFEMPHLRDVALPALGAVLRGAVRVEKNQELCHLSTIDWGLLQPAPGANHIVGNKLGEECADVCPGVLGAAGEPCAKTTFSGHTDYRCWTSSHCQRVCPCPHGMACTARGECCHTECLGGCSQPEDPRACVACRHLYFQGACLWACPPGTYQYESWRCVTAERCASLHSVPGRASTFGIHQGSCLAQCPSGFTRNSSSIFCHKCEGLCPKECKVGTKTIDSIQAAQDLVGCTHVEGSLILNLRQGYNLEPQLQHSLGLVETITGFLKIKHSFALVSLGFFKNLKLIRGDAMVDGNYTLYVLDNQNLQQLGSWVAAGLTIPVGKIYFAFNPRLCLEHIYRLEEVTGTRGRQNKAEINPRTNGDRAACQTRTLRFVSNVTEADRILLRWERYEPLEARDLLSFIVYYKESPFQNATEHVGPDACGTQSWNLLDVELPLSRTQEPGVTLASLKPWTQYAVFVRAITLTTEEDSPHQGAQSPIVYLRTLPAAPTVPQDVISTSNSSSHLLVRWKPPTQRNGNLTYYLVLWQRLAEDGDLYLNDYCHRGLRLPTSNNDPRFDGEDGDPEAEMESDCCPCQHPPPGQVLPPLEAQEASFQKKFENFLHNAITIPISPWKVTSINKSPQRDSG
Insulin receptor-related protein (Homo sapiens), sequence (P14616 747-1297 limits assumed): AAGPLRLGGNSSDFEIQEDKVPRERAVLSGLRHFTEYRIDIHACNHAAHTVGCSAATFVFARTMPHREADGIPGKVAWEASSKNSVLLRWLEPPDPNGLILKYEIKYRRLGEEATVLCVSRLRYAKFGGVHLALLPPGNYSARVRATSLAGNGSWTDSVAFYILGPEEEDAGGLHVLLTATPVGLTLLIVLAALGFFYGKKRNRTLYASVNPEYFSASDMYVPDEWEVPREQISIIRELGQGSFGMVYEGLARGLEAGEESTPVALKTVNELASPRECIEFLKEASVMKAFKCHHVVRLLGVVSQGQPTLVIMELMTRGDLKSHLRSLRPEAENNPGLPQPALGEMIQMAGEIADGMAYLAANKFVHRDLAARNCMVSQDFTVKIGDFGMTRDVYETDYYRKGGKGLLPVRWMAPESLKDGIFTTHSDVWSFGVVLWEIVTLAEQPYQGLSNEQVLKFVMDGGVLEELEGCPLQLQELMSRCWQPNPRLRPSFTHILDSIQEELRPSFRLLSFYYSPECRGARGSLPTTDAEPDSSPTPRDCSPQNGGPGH
Tyrosine-protein kinase Fgr (Homo sapiens), sequence (P09769 2-529 limits assumed): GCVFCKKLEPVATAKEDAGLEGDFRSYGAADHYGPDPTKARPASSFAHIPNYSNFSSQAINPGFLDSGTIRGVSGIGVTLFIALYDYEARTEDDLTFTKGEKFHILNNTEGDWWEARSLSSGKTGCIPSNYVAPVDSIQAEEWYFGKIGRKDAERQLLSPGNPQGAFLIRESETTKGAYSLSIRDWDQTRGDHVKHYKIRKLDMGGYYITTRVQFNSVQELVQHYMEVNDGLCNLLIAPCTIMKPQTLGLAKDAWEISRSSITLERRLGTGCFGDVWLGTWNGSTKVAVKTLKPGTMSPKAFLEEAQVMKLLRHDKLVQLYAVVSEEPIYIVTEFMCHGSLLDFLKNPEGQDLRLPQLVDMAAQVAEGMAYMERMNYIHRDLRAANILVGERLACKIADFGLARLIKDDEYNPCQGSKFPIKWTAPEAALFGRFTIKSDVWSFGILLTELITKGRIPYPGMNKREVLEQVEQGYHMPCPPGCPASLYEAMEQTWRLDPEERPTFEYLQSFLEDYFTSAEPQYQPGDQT

For `Cn1cc(-n2cnc3c(NCc4nc5cc(Cl)c(Cl)cc5[nH]4)nc(N4CCOCC4)nc32)cn1`, the % of control in experiment [1] was 1.86%. The % of inhibition in experiment [2] is -117%.

`N#Cc1cccc(-c2c[nH]c3ncnc(N4CCOCC4)c23)c1`: the % of inhibition in experiment [3] turned out to be 5%.

For the molecule `CC[C@@H]1[C@H](F)C(=O)N[C@@H]1COc1nccc2cc(C(N)=O)c(OC)cc12` [ZIMLOVISERTIB], the % of inhibition was -8.3% in experiment [4] (at 0.01 µM); -5.9% in experiment [4] (at 0.04 µM); -13.7% in experiment [4] (at 0.2 µM); 3.6% in experiment [4] (at 1 µM); -22.1% in experiment [4] (at 5 µM).

In the case of `C=CC(=O)Nc1cccc(C(=O)Nc2ccc(Nc3cc(-c4[nH]c(SC)nc4C)ccn3)cc2)c1`, the % of control came to 99% on SRSF protein kinase 1 (at 1 µM) and 86% on SRSF protein kinase 1 (at 5 µM).

In turn, `CN(C)CCCOc1ccc(-c2cc(NCCCn3cccn3)nc(S(C)(=O)=O)n2)cc1` came in with a dTM at CREB-binding protein of less than 2 K.

Consider `O[C@H]1CC[C@H](Nc2ncc3nc(Nc4c(F)cc(F)cc4F)n([C@H]4CCOC4)c3n2)CC1`, for which the % of control in experiment [5] and in experiment [6] was 100% in each case.
